The supplement of paper PMC10307832

Columns and labels:
Assay in all cases: relative viability (nuclei count vs DMSO), 5 days (fraction); higher = more cells survive
[1] = compound: CC1=C(C(=O)N2C=CSC2=N1)CCN3CCC(=C(C4=CC=CC=C4)C5=CC=C(C=C5)F)CC3 + CS(=O)(=O)N1CCN(Cc2cc3nc(-c4cccc5[nH]ncc45)nc(N4CCOCC4)c3s2)CC1 [Pictilisib] (partner 1 µM)
In short: (§1)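 The day after seeding in 1536-well plates, lung cancer cell lines were treated by pin tool with a single drug, or with a fixed anchor-drug dose together with five library-drug doses (not always all listed) in √10 steps. After 5 days, a combined fix-and-stain solution (final 0.05% Triton X-100, 1% formaldehyde, 1 ug/ml Hoechst) was added. Nuclei counted on 4× images gave relative viability as treated counts over vehicle counts, reported as the median of duplicate plates.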

[2] = compound: CC1=C(C(=O)N2C=CSC2=N1)CCN3CCC(=C(C4=CC=CC=C4)C5=CC=C(C=C5)F)CC3 + COc1cccc2cc(-c3nc([C@H]4CC[C@H](C(=O)O)CC4)n4ncnc(N)c34)[nH]c12 [OSI-027] (partner 0.5 µM)
In short: as §1

[3] = compound: CC1=C(C(=O)N2C=CSC2=N1)CCN3CCC(=C(C4=CC=CC=C4)C5=CC=C(C=C5)F)CC3 + CC(=O)c1c(C)c2cnc(Nc3ccc(N4CCNCC4)cn3)nc2n(C2CCCC2)c1=O [Palbociclib] (partner 0.5 µM)
In short: as §1

[4] = compound: CC1=C(C(=O)N2C=CSC2=N1)CCN3CCC(=C(C4=CC=CC=C4)C5=CC=C(C=C5)F)CC3 + CCNC(=O)c1noc(-c2cc(C(C)C)c(O)cc2O)c1-c1ccc(CN2CCOCC2)cc1 [Luminespib] (partner 0.01 µM)
In short: as §1

Row | Cell Line | relative viability ([1]; first compound 0.08 µM) | relative viability ([1]; first compound 0.253 µM) | relative viability ([1]; first compound 0.8 µM) | relative viability ([1]; first compound 2.53 µM) | relative viability ([1]; first compound 8 µM) | relative viability ([2]; first compound 0.08 µM) | relative viability ([2]; first compound 0.253 µM) | relative viability ([2]; first compound 0.8 µM) | relative viability ([2]; first compound 2.53 µM) | relative viability ([2]; first compound 8 µM) | relative viability ([3]; first compound 0.08 µM) | relative viability ([3]; first compound 0.253 µM) | relative viability ([3]; first compound 0.8 µM) | relative viability ([3]; first compound 2.53 µM) | relative viability ([3]; first compound 8 µM) | relative viability ([4]; first compound 0.08 µM) | relative viability ([4]; first compound 0.253 µM) | relative viability ([4]; first compound 0.8 µM) | relative viability ([4]; first compound 2.53 µM) | relative viability ([4]; first compound 8 µM)
1 | NCI-H1650 | 0.586 | 0.682 | 0.519 | 0.586 | 0.389 | 0.539 | 0.736 | 0.583 | 0.561 | 0.353 | 0.395 | 0.345 | 0.313 | 0.383 | 0.348 | 0.182 | 0.204 | 0.196 | 0.188 | 0.189
2 | COR-L 105 | 0.349 | 0.392 | 0.376 | 0.436 | 0.403 | 0.682 | 0.726 | 0.695 | 0.835 | 0.644 | 0.439 | 0.419 | 0.383 | 0.406 | 0.383 | 0.673 | 0.817 | 0.798 | 0.809 | 0.659
3 | NCI-H2009 | 1.05 | 0.843 | 0.736 | 0.956 | 0.723 | 0.638 | 0.619 | 0.616 | 0.637 | 0.527 | 0.231 | 0.175 | 0.186 | 0.204 | 0.21 | 0.973 | 0.955 | 1.08 | 1.11 | 0.9
4 | NCI-H2405 | 0.426 | 0.432 | 0.481 | 0.531 | 0.347 | 0.664 | 0.614 | 0.677 | 0.624 | 0.606 | 0.609 | – | 0.547 | 0.576 | 0.476 | 0.746 | 0.744 | 0.753 | 0.649 | 0.564
5 | LOU-NH91 | 0.561 | 0.503 | 0.545 | 0.55 | 0.527 | 0.734 | 0.769 | 0.767 | 0.76 | 0.642 | 0.501 | 0.59 | 0.543 | 0.547 | 0.536 | 0.377 | 0.34 | 0.335 | 0.366 | 0.361
6 | HCC-15 | 0.714 | 0.752 | 0.714 | 0.773 | 0.587 | 0.593 | 0.628 | 0.707 | 0.782 | 0.507 | 0.738 | 0.744 | 0.679 | 0.729 | 0.556 | 0.444 | 0.321 | 0.22 | 0.444 | 0.293
7 | SW 1573 | – | 0.478 | 0.478 | 0.486 | 0.264 | – | 0.645 | 0.716 | 0.676 | 0.351 | 0.346 | 0.359 | 0.407 | 0.382 | 0.286 | 0.155 | 0.189 | 0.215 | 0.245 | 0.227
8 | LXF-289 | 0.824 | 0.953 | 0.804 | 0.674 | 0.724 | 0.784 | 0.79 | 0.779 | 0.884 | 0.55 | 0.595 | 0.666 | 0.604 | 0.599 | 0.469 | 0.513 | 0.713 | 0.599 | 0.839 | 0.529
